The record followed here is paper PMC4549706, “Rational Design of Highly Potent and Slow-Binding Cytochrome bc1 Inhibitor as Fungicide by Computational Substitution Optimization” (Scientific Reports, 2015).

T2 sequence (P24964 whole entry, one chain of several): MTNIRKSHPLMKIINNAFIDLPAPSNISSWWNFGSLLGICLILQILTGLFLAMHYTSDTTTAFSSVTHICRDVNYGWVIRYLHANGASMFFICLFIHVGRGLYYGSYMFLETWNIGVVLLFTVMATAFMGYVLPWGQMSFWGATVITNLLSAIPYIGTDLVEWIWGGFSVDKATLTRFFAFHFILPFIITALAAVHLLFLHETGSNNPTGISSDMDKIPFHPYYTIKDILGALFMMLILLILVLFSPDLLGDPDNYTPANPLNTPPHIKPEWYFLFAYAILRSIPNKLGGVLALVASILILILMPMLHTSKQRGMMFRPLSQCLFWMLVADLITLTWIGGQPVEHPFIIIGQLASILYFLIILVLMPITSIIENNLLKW
T1 sequence (P24964 whole entry, one chain of several): as above

The test system of the first data set is Pseudoperonospora cubensis (Berk. et Curt.). Description: In vivo fungus growth inhibitory rate at 200 mg/L, downy mildew.
Details: not given
As for the experimental part:
(§1) [a] Compounds are named as “series number-site number plus substitution group number” a: -F, b: -Cl, c:
(§2) -Br, d: -NO2, e: -CH3, f: -CF3, g: -OCH3, h: -OH, i: -NH2, j: -COOH.
(§3) [b] Substitution number and group.
(§4) [c] CH is “series 1” and N is “series 2”. […]
(§5) Table S2 Fungus growth inhibitory rate of target compounds (200 mg/L).
(§6) Comp. No. R X Sphaerotheca fuliginea Pseudoperonospora cubensis
`CO/C=C(/C(=O)OC)c1ccccc1CSc1nc2cc(F)ccc2s1` [Compound 12]: the “Fungus growth inhibitory rate, Pseudoperonospora cubensis” value is recorded as 90%.
`CO/C=C(/C(=O)OC)c1ccccc1CSc1nc2ccc(C)cc2s1` [Compound 26]: the “Fungus growth inhibitory rate, Pseudoperonospora cubensis” value came to 97%.

The next data set addresses T1, bc1 complex (Sus scrofa, UniProt P24964).
T1 construct: T h e S C R f r o m p o r c i n e h e a r t; from tissue; host or cells: porcine heart
Put plainly: bc1 complex activity, DBH2-cytochrome c system (Assay 3). It counts as biochemical, porcine.
Details: not given
As for the experimental part:
Figure 3 Inhibitory kinetics of bc1 complex. (A) Chemical structures of AZ (azoxystrobin) and its analogues, compound 1 and compound 18. These compounds have a common pharmacophore structure: methoxyacrylate (MOA). […] Each reaction mixture contains phosphate buffered saline (PBS; 100 mM, pH 6.5), ethylenediaminetetraacetic acid (EDTA; 2 mM), lauryl maltoside (750 μM), oxidised cytochrome c (100 μM), SCR (0.05 nM), DBH2 (20–120 μM) and a specified amount of AZ (1, 0 nM; 2, 500 nM; 3, 1000 nM; 4, 2000 nM; 5, 3000 nM; and 6, 5000 nM). (C) Compound 1 is non-competitive with respect to cytochrome c. The reaction mixture contains 100 mM, pH 7.4), EDTA (0.3 mM), succinate (20 mM), SCR (0.1 nM), cytochrome c (1.13–15.6 μM), and a series of concentrations of compound 1 (1, 0 nM; 2, 10 nM; 3, 20 nM; 4, 40 nM; and 5, 60 nM). (D) Compound 1 is competitive with respect to DBH2. Each reaction mixture contains 100 mM, pH 6.5), EDTA (2 mM), lauryl maltoside (750 μM), oxidised cytochrome c (100 μM), SCR (0.05 nM), DBH2 (20–120 μM) and a specified amount of compound 1 (1, 0 nM; 2, 50 nM; 3, 100 nM; 4, 200 nM; 5, 300 nM; and 6, 500 nM).
(§7) Figure 4 Slow-binding inhibition mechanism. (A,B) Effect of various concentrations of cytochrome c and compound 18 on the inhibition of SCR activity. Each reaction mixture contains 100 mM, pH 7.4), EDTA (0.3 mM), succinate (20 mM), SCR (0.1 nM), and indicated amounts of cytochrome c and compound 18. The assays were performed in the presence of (A) 18 (35 nM) and a specified amount of cytochrome c (1, 4 μM; 2, 8 μM; 3, 20 μM; and 4, 48 μM) or (B) cytochrome c (60 μM) and various concentrations of compound 18 (1, 0 nM; 2, 15 nM; 3, 20 nM; 4, 30 nM; 5, 40 nM; and 6, 50 nM). Experimental data are shown as coloured dots and theoretical values are represented as black solid lines. Insets: plots of Kobs against concentration of (A) cytochrome c and (B) compound 18. […] Each reaction mixture contains 100 mM, pH 6.5), EDTA (2 mM), lauryl maltoside (750 μM), oxidised cytochrome c (100 μM), SCR (0.05 nM), and indicated amounts of DBH2 and compound 18. Two representative sets of inhibitory assays were performed in the presence of (C) DBH2 (20 μM) and a specified amount of compound 18 (1, 20 nM; 2, 40 nM; 3, 60 nM; 4, 80 nM), or (D) DBH2 (120 μM) and a specified amount of compound 18 (1, 40 nM; 2, 80 nM; 3, 120 nM; 4, 180 nM). Insets: plots of Kobs against concentration of compound 18. (E) Plot of the apparent rate constant A against concentration of DBH2. Inset: Plot of 1/A against concentration of DBH2. (F) Plot of the apparent rate constant B against concentration of DBH2.
(§8) The porcine succinate-cytochrome c reductase (SCR, the mixture of complex II and bc1) was prepared essentially according to the previously reported method. The enzymatic activities of SCR, complex II, and bc1 complex were analyzed in respective reaction mixtures as reported previously. Kinetic analyses for the inhibition mechanism were performed as previously described. […]
(§9) inhibitory kinetics study of bc1 inhibitors 8. […]
(§10) synthesized compounds against bc1 complex were examined by SCR. As previously described 9, the combined activity of SCR can be determined by using succinate and cytochrome c as substrates (Assay 1). We also measured the activity of complex II by using succinate and 2,6-dichloroindophenol (DCIP) as substrates (Assay 2), or the activity of bc1 complex by using decylubiquinol (DBH2) and cytochrome c as substrates (Assay 3). […]
redA 10, was used to represent the enzyme concentration. The three redox reactions used in this study were summarized as follows. […]
As usually defined, the Ki is the dissociation constant of the complex between target and ligand, obtained from inhibition or displacement. The compound `CO/C=C(/C(=O)OC)c1ccccc1CSc1nc2ccccc2s1` [Compound 1, E-Methyl 2-(2-((benzo-thiazol-2-ylthio)methyl)phenyl)-3-methoxyacrylate] gave a Ki of 96.5 ± 5.6 nM.

Still in this data set, the particulars now being: Assay 3, varied DBH2.
As for `CO/C=C(/C(=O)OC)c1ccccc1CSc1nc2ccccc2s1` [Compound 1, E-Methyl 2-(2-((benzo-thiazol-2-ylthio)methyl)phenyl)-3-methoxyacrylate], the “inhibition type with respect to DBH2” value is listed as “competitive”.

Still in this data set, the particulars now being: Assay 3 vs Assay 1.
Consider `CO/C=C(/C(=O)OC)c1ccccc1CSc1nc2ccccc2s1` [Compound 1, E-Methyl 2-(2-((benzo-thiazol-2-ylthio)methyl)phenyl)-3-methoxyacrylate], for which the “Ki in DBH2-cytochrome c system relative to Ki in succinate-cytochrome c system” value is listed as “approximately 3 fold”.

Tested on in another data set: not given
Assay: not given
Details: not given
One may read the melting point as the temperature, or range, at which the solid turns liquid. In turn, `CO/C=C(/C(=O)OC)c1ccccc1CSc1nc2ccccc2s1` [Compound 1, E-Methyl 2-(2-((benzo-thiazol-2-ylthio)methyl)phenyl)-3-methoxyacrylate] had a melting point of 84 to 86 °C.

A further data set relates to Sphaerotheca fuliginea (Schlecht.) Poll. Put plainly: In vivo fungus growth inhibitory rate at 200 mg/L, powdery mildew.
Details: not given
Text: Based on the above in vitro study, compounds with nanomolar and subnanomolar Ki values were selected from the total 21 newly synthezised compounds for further studies. Pesticide likeness, defined as a complex balance of various physicochemical properties and structure features, can evaluate whether a molecule is similar to the known pesticides. After the filtration of pesticide likeness, seven compounds were kept to adhere to our previously defined rules for pesticide-likeness including molecular weight (MW) ≤ 435 Da, ClogP ≤ 6, number of H-bond acceptors (HBA) ≤ 6, number of H-bond donors (HBD) ≤ 2, number of rotatable bonds (ROB) ≤ 9, and number of aromatic bonds (ARB) ≤ 17 (Table 1)[24]. […] Therefore, compound 18 was recognized as lead compound for subsequent studies.
as §1, §2, §3, §4, §5, §6
As to `CO/C=C(/C(=O)OC)c1ccccc1CSc1nc2cc(F)ccc2s1` [Compound 12], the “Fungus growth inhibitory rate, Sphaerotheca fuliginea” value was determined as 99%.
Take `CO/C=C(/C(=O)OC)c1ccccc1CSc1nc2ccc(C)cc2s1` [Compound 26]: the “Fungus growth inhibitory rate, Sphaerotheca fuliginea” value was 81%.

Another data set concerns the target T2, porcine succinate-cytochrome c reductase (SCR, the mixture of complex II and bc1) (Sus scrofa, UniProt P24964).
T2 construct: T h e S C R f r o m p o r c i n e h e a r t; from tissue; host or cells: porcine heart
Description: SCR activity, succinate-cytochrome c system (Assay 1). It counts as biochemical.
Details: not given
As for the experimental part:
as §7, §8, §9, §10
redA 10, was used to represent the enzyme concentration. The three redox reactions used in this study were summarized as follows.
Assay 1: succinate + cytochrome c3+ S C R fumarate + cytochrome c2+
Assay 2: succinate + DCIP complex II fumarate + DCIPH 2
Assay 3: DBH 2 + cytochrome c3+ bc1 complex DB + cytochrome c2+
All assays were performed at 23 °C. The enzymatic activity of SCR (Assay 1) was carried out in 1.8 mL of reaction mixture containing 100 mM PBS (pH 7.4), 0.3 mM EDTA, and indicated concentrations of succinate and oxidized cytochrome c (Sigma-Aldrich). The activity of succinate-ubiquinone reductase (complex II, Assay 2) was determined in essentially the same reaction mixture, except for the replacement of cytochrome c with DCIP (Alfa Aesar). […] DBH 2 was prepared through reduction of decylubiquinone by dithionite (Sigma-Aldrich) as previously described 11,12. The nonionic detergent LM was used to decrease the interfering non-enzymatic activity though it slightly […]
In the case of `CO/C=C(/C(=O)OC)c1ccccc1CSc1nc2ccccc2s1` [Compound 1, E-Methyl 2-(2-((benzo-thiazol-2-ylthio)methyl)phenyl)-3-methoxyacrylate], the Ki was determined as 31.1 ± 0.9 nM.
On the same count and under the same terms, with `CO/C=C(/C(=O)OC)c1ccccc1CSc1nc2cc(F)ccc2s1` [Compound 12] the figure was 2.15 ± 0.23 nM.
`CO/C=C(/C(=O)OC)c1ccccc1CSc1nc2cc(Cl)ccc2s1` [Compound 13]: the Ki was 0.69 ± 0.06 nM.
As to `CO/C=C(/C(=O)OC)c1ccccc1CSc1nc2cc([N+](=O)[O-])ccc2s1` [Compound 15], the Ki came to 0.39 ± 0.02 nM.
In the case of `CO/C=C(/C(=O)OC)c1ccccc1CSc1nc2ccc(F)cc2s1` [Compound 22], the Ki came out at 3.97 ± 0.27 nM.
Take `CO/C=C(/C(=O)OC)c1ccccc1CSc1nc2ccc(Cl)cc2s1` [Compound 23]: the Ki was determined as 2.75 ± 0.01 nM.
Consider `CO/C=C(/C(=O)OC)c1ccccc1CSc1nc2ccc(Br)cc2s1` [Compound 24], for which the Ki was 1.15 ± 0.4 nM.
Consider `CO/C=C(/C(=O)OC)c1ccccc1CSc1nc2ccc(C)cc2s1` [Compound 26], for which the Ki stood at 1.15 ± 0.05 nM.
For the compound `CO/C=C(/C(=O)OC)c1ccccc1CSc1nc2ccc(C(F)(F)F)cc2s1` [Compound 27], the Ki was determined as 0.81 ± 0.03 nM.
The same measure, in the same setting: to `CO/N=C(/C(=O)OC)c1ccccc1CSc1nc2cc(Cl)ccc2s1` [Compound 53] belongs 2.84 ± 0.03 nM.

Still in this data set, the particulars now being: Assay 1, varied cytochrome c.
As to `CO/C=C(/C(=O)OC)c1ccccc1CSc1nc2ccccc2s1` [Compound 1, E-Methyl 2-(2-((benzo-thiazol-2-ylthio)methyl)phenyl)-3-methoxyacrylate], the “inhibition type with respect to cytochrome c” value was “non-competitive”.

The same data set, now with this note: Table S1, experimental binding free energy change vs compound 1.
Consider `CO/C=C(/C(=O)OC)c1ccccc1CSc1nc2ccccc2s1` [Compound 1, E-Methyl 2-(2-((benzo-thiazol-2-ylthio)methyl)phenyl)-3-methoxyacrylate], for which the “∆∆Gexp” value stood at 0.00 kcal/mol.
As to `CO/C=C(/C(=O)OC)c1ccccc1CSc1nc2cc(F)ccc2s1` [Compound 12], the “∆∆Gexp” value is listed as -1.58 kcal/mol.
As for `CO/C=C(/C(=O)OC)c1ccccc1CSc1nc2cc(Cl)ccc2s1` [Compound 13], the “∆∆Gexp” value is on record as -2.26 kcal/mol.
For the compound `CO/C=C(/C(=O)OC)c1ccccc1CSc1nc2cc([N+](=O)[O-])ccc2s1` [Compound 15], the “∆∆Gexp” value is reported as -2.60 kcal/mol.
`CO/C=C(/C(=O)OC)c1ccccc1CSc1nc2ccc(F)cc2s1` [Compound 22]: the “∆∆Gexp” value was -1.22 kcal/mol.
For `CO/C=C(/C(=O)OC)c1ccccc1CSc1nc2ccc(Cl)cc2s1` [Compound 23], the “∆∆Gexp” value was -1.44 kcal/mol.
Take `CO/C=C(/C(=O)OC)c1ccccc1CSc1nc2ccc(Br)cc2s1` [Compound 24]: the “∆∆Gexp” value is -1.96 kcal/mol.
The same measure, in the same setting: to `CO/C=C(/C(=O)OC)c1ccccc1CSc1nc2ccc(C)cc2s1` [Compound 26] belongs -1.96 kcal/mol.
With `CO/C=C(/C(=O)OC)c1ccccc1CSc1nc2ccc(C(F)(F)F)cc2s1` [Compound 27], the “∆∆Gexp” value is reported as -2.16 kcal/mol.
In the case of `CO/N=C(/C(=O)OC)c1ccccc1CSc1nc2cc(Cl)ccc2s1` [Compound 53], the “∆∆Gexp” value is listed as -1.42 kcal/mol.

Still in this data set, the particulars now being: experimental binding free energy change relative to compound 1.
For `CO/C=C(/C(=O)OC)c1ccccc1CSc1nc2ccccc2s1` [Compound 1, E-Methyl 2-(2-((benzo-thiazol-2-ylthio)methyl)phenyl)-3-methoxyacrylate], the ΔΔGexp is on record as 0.00 kcal/mol.
For the compound `CO/C=C(/C(=O)OC)c1ccccc1CSc1nc2cc(F)ccc2s1` [Compound 12], the ΔΔGexp is -1.58 kcal/mol.
Consider `CO/C=C(/C(=O)OC)c1ccccc1CSc1nc2cc(Cl)ccc2s1` [Compound 13], for which the ΔΔGexp is -2.26 kcal/mol.
For the compound `CO/C=C(/C(=O)OC)c1ccccc1CSc1nc2cc([N+](=O)[O-])ccc2s1` [Compound 15], the ΔΔGexp is -2.60 kcal/mol.
Regarding `CO/C=C(/C(=O)OC)c1ccccc1CSc1nc2ccc(F)cc2s1` [Compound 22], the ΔΔGexp was -1.22 kcal/mol.
Take `CO/C=C(/C(=O)OC)c1ccccc1CSc1nc2ccc(Cl)cc2s1` [Compound 23]: the ΔΔGexp was -1.44 kcal/mol.
For `CO/C=C(/C(=O)OC)c1ccccc1CSc1nc2ccc(Br)cc2s1` [Compound 24], the ΔΔGexp was -1.96 kcal/mol.
Regarding `CO/C=C(/C(=O)OC)c1ccccc1CSc1nc2ccc(C)cc2s1` [Compound 26], the ΔΔGexp is -1.96 kcal/mol.
As to `CO/C=C(/C(=O)OC)c1ccccc1CSc1nc2ccc(C(F)(F)F)cc2s1` [Compound 27], the ΔΔGexp is -2.16 kcal/mol.
Take `CO/N=C(/C(=O)OC)c1ccccc1CSc1nc2cc(Cl)ccc2s1` [Compound 53]: the ΔΔGexp is -1.42 kcal/mol.
